Measurements published in patent publication US20240360146A1, “BRUTON'S TYROSINE KINASE AND MUTANT DEGRADER, COMPOSITION AND APPLICATION THEREOF” (HANGZHOU HEALZEN THERAPEUTICS CO., LTD., priority 2021, published 2024).

target: T1, BTK (Homo sapiens, UniProt Q06187); experiment: BTK degradation activity test in Mino cells; format: cell-based; conditions: 16 h incubation, Western blot or Elisa
T1 construct: endogenous in cells; host or cells: Mino cells
Experimental: Mino cell line cells were seeded at 500,000 to 1,000,000 cells/well in a 6-well plate. The compounds were diluted to different concentrations and added to the plate, and after 16 h of incubation, cells were harvested. After lysing the cells, the total protein concentration in each well was determined using the BCA method. The amount of BTK was determined using Western blot or Elisa method. The amount of undegraded BTK protein at each drug concentration was compared with the amount of BTK protein in the blank control group to calculate the degradation rate. The degradation curve was drawn based on the degradation rate at each concentration, and the half degradation concentration (DC50) was calculated by fitting.

T1 sequence (Q06187 whole entry): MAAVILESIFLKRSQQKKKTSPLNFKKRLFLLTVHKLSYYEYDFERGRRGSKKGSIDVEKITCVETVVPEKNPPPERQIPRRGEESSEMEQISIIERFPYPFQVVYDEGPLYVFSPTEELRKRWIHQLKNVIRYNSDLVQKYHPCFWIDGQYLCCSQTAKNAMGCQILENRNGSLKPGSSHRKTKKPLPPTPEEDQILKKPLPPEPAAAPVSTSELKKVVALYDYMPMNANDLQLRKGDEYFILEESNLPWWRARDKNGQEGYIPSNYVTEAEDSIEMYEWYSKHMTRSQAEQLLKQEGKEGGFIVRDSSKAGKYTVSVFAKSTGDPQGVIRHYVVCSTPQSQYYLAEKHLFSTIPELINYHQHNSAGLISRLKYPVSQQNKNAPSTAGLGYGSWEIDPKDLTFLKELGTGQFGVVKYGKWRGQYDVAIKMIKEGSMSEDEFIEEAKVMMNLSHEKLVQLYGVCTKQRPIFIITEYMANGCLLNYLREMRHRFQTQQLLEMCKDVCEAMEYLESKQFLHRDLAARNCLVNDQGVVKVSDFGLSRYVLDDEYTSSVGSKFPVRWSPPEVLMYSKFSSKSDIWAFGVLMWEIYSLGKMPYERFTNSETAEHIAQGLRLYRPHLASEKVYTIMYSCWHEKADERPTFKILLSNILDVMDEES

SMILES	DC50
CC1(c2ccc(Nc3nc(N4CCCC(N5CCN(C6CCCC6)C5=O)C4)cnc3C(N)=O)cc2)CCN(C2CN(c3ccc4c(c3)C(=O)N(C3CCC(=O)NC3=O)C4=O)C2)CC1 (centres unmarked) [Compound 001, 5-(3-(3-cyclopentyl-2-oxoimidazolin-1-yl)piperidin-1-yl)-3-((4-(1-(1-(2-(2,6-dioxopiperidin-3-yl)-1,3-dioxoisoindol-5-yl)azetidin-3-yl)-4-methylpiperidin-4-yl)phenyl)amino)pyrazin-2-carboxamide]	< 1 nM
CC1(c2ccc(Nc3nc(N4CCCC(N5CCN(C6COC6)C5=O)C4)cnc3C(N)=O)cc2)CCN(C2CN(c3ccc4c(c3)C(=O)N(C3CCC(=O)NC3=O)C4=O)C2)CC1 (centres unmarked) [Compound 002, 3-((4-(1-(1-(2-(2,6-dioxopiperidin-3-yl)-1,3-dioxoisoindol-5-yl)azetidine-3-yl)-4-methylpiperidin-4-yl)phenyl)amino)-5-(3-(3-(oxetan-3-yl)-2-oxoimidazolin-1-yl)piperidin-1-yl)pyrazin-2-carboxamide]	< 1 nM
CC1(c2ccc(Nc3nc(N4CCCC(N5CCN(C6CCCCC6)C5=O)C4)cnc3C(N)=O)cc2)CCN(C2CN(c3ccc4c(c3)C(=O)N(C3CCC(=O)NC3=O)C4=O)C2)CC1 (centres unmarked) [Compound 003, 5-(3-(3-cyclohexyl-2-oxoimidazolin-1-yl)piperidin-1-yl)-3-((4-(1-(1-(2-(2,6-dioxopiperidin-3-yl)-1,3-dioxoisoindol-5-yl)azetidin-3-yl)-4-methylpiperidin-4-yl)phenyl)amino)pyrazin-2-carboxamide]	< 1 nM
CC1(c2ccc(Nc3nc(N4CCCC(N5CCN(C6CCOCC6)C5=O)C4)cnc3C(N)=O)cc2)CCN(C2CN(c3ccc4c(c3)C(=O)N(C3CCC(=O)NC3=O)C4=O)C2)CC1 (centres unmarked) [Compound 004, 3-((4-(1-(1-(2-(2,6-dioxopiperidin-3-yl)-1,3-dioxoisoindol-5-yl)azetidine-3-yl)-4-methylpiperidin-4-yl)phenyl)amino)-5-(3-(2-oxo-3-(tetrahydro-2H-pyran-4-yl)imidazolin-1-yl)piperidin-1-yl)pyrazin-2-carboxamide]	< 1 nM
CC1(c2ccc(Nc3nc(N4CCCC(N5CC6CCCN6C5=O)C4)cnc3C(N)=O)cc2)CCN(C2CN(c3ccc4c(c3)C(=O)N(C3CCC(=O)NC3=O)C4=O)C2)CC1 (centres unmarked) [Compound 005, 3-((4-(1-(1-(2-(2,6-dioxopiperidin-3-yl)-1,3-dioxoisoindol-5-yl)azetidin-3-yl)-4-methylpiperidin-4-yl)phenyl)amino)-5-(3-(3-oxotetrahydro-1H-pyrrolo[1,2-c]imidazo 1-2(3H)-yl)piperidin-1-yl)pyrazin-2-carboxamide]	< 1 nM
CC1(c2ccc(Nc3nc(N4CCCC(N5CC6CCCCN6C5=O)C4)cnc3C(N)=O)cc2)CCN(C2CN(c3ccc4c(c3)C(=O)N(C3CCC(=O)NC3=O)C4=O)C2)CC1 (centres unmarked) [Compound 006, 3-((4-(1-(1-(2-(2,6-dioxopiperidin-3-yl)-1,3-dioxoisoindol-5-yl)azetidin-3-yl)-4-methylpiperidin-4-yl)phenyl)amino)-5-(3-(3-oxohexahydroimidazo[1,5-a]pyridin-2(3H)-yl)piperidin-1-yl)pyrazin-2-carboxamide]	< 1 nM
CCc1nc(C(N)=O)c(Nc2ccc(C3(C)CCN(C4CN(c5ccc6c(c5)C(=O)N(C5CCC(=O)NC5=O)C6=O)C4)CC3)cc2)nc1N1CCCC(N2CCN(C)C2=O)C1 (centres unmarked) [Compound 007]	< 1 nM
CN1C(=O)N(C2CCCN(c3cnc(C(N)=O)c(Nc4ccc(C5(C)CCN(C6CN(c7ccc8c(c7)C(=O)N(C7CCC(=O)NC7=O)C8=O)C6)CC5)cc4)n3)C2)C2CCCC21 (centres unmarked) [Compound 008, 3-((4-(1-(1-(2-(2,6-dioxopiperidin-3-yl)-1,3-dioxoisoindol-5-yl)azetidin-3-yl)-4-methylpiperidin-4-yl)phenyl)amino)-5-(3-(3-methyl-2-oxohexahydrocyclopenta[d]imidazol-1(2H)-yl)piperidin-1-yl)pyrazin-2-carboxamide]	< 1 nM
CN1C(=O)N(C2CCCN(c3cnc(C(N)=O)c(Nc4ccc(C5(C)CCN(C6CN(c7ccc8c(c7)C(=O)N(C7CCC(=O)NC7=O)C8=O)C6)CC5)cc4)n3)C2)C2CCCCC21 (centres unmarked) [Compound 009, 3-((4-(1-(1-(2-(2,6-dioxopiperidin-3-yl)-1,3-dioxoisoindol-5-yl)azetidin-3-yl)-4-methylpiperidin-4-yl)phenyl)amino)-5-(3-(3-methyl-2-oxooctahydro-1H-benzo[d]imidazol-1-yl)piperidin-1-yl)pyrazin-2-carboxamide]	< 1 nM
CN1C(=O)N(C2CCCN(c3cnc(C(N)=O)c(Nc4ccc(C5(C)CCN(C6CN(c7ccc8c(c7)C(=O)N(C7CCC(=O)NC7=O)C8=O)C6)CC5)cc4)n3)C2)CC12CC2 (centres unmarked) [Compound 010, 3-((4-(1-(1-(2-(2,6-dioxopiperidin-3-yl)-1,3-dioxoisoindol-5-yl)azetidin-3-yl)-4-methylpiperidin-4-yl)phenyl)amino)-5-(3-(4-methyl-5-oxo-4,6-diazaspirocyclo[2.4]heptan-6-yl)piperidin-1-yl)pyrazin-2-carboxamide]	> 1 nM

Other lines, results leading:

DC50	SMILES
< 1 nM	CN1C(=O)N(C2CCCN(c3cnc(C(N)=O)c(Nc4ccc(C5(C)CCN(C6CN(c7ccc8c(c7)C(=O)N(C7CCC(=O)NC7=O)C8=O)C6)CC5)cc4)n3)C2)CC12CCC2 (centres unmarked) [Compound 011, 3-((4-(1-(1-(2-(2,6-dioxopiperidin-3-yl)-1,3-dioxoisoindol-5-yl)azetidin-3-yl)-4-methylpiperidin-4-yl)phenyl)amino)-5-(3-(5-methyl-6-oxo-5,7-diazaspirocyclo[3.4]octan-7-yl)piperidin-1-yl)pyrazin-2-carboxamide]
< 1 nM	CC1(c2ccc(Nc3nc(N4CCCC(N5CCN(C6COC6)C5=O)C4)cnc3C(N)=O)cc2)CCN(C2CCN(c3ccc4c(c3)C(=O)N(C3CCC(=O)NC3=O)C4=O)CC2)CC1 (centres unmarked) [Compound 012, 3-((4-(1′-(2-(2,6-dioxopiperidin-3-yl)-1,3-dioxoisoindol-5-yl)-4-methyl-[1,4′-bipiperidin]-4-yl)phenyl)amino)-5-(3-(3-(oxetan-3-yl)-2-oxoimidazolin-1-yl)piperidin-1-yl)pyrazin-2-carboxamide]
< 1 nM	CC1(c2ccc(Nc3nc(N4CCCC(N5CCN(C6COC6)C5=O)C4)cnc3C(N)=O)cc2)CCN(C2CCN(c3ccc4c(c3)CN(C3CCC(=O)NC3=O)C4=O)CC2)CC1 (centres unmarked) [Compound 013, 3-((4-(1′-(2-(2,6-dioxopiperidin-3-yl)-1-oxoisoindol-5-yl)-4-methyl-[1,4′-bipiperidin]-4-yl)phenyl)amino)-5-(3-(3-(oxetan-3-yl)-2-oxoimidazolin-1-yl)piperidin-1-yl)pyrazin-2-carboxamide]
< 1 nM	CC1(c2ccc(Nc3nc(N4CCCC(N5CCN(C6COC6)C5=O)C4)cnc3C(N)=O)cc2)CCN(C2CN(c3ccc4c(c3)CN(C3CCC(=O)NC3=O)C4=O)C2)CC1 (centres unmarked) [Compound 014, 3-((4-(1-(1-(2-(2,6-dioxopiperidin-3-yl)-1-oxoisoindol-5-yl)azetidin-3-yl)-4-methylpiperidin-4-yl)phenyl)amino)-5-(3-(3-(oxetan-3-yl)-2-oxoimidazolin-1-yl)piperidin-1-yl)pyrazin-2-carboxamide]
< 1 nM	NC(=O)c1ncc(N2CCCC(N3CCN(C4COC4)C3=O)C2)nc1Nc1ccc(N2CCN(C3CN(c4ccc5c(c4)C(=O)N(C4CCC(=O)NC4=O)C5=O)C3)CC2)cc1 (centres unmarked) [Compound 015, 3-((4-(4-(1-(2-(2,6-dioxopiperidin-3-yl)-1,3-dioxoisoindol-5-yl)azetidin-3-yl)piperazin-1-yl)phenyl)amino)-5-(3-(3-(oxetan-3-yl)-2-oxoimidazolin-1-yl)piperidin-1-yl) pyrazin-2-carboxamide]
< 1 nM	NC(=O)c1ncc(N2CCCC(N3CCN(C4COC4)C3=O)C2)nc1Nc1ccc(N2CCN(CC3CN(c4ccc5c(c4)C(=O)N(C4CCC(=O)NC4=O)C5=O)C3)CC2)cc1 (centres unmarked) [Compound 016, 3-((4-(4-((1-(2-(2,6-dioxopiperidin-3-yl)-1,3-dioxoisoindol-5-yl)azetidine-3-yl)methyl)piperazin-1-yl)phenyl)amino)-5-(3-(3-(oxetan-3-yl)-2-oxoimidazolin-1-yl)piperidin-1-yl)pyrazin-2-carboxamide]
< 1 nM	NC(=O)c1ncc(N2CCCC(N3CCN(C4COC4)C3=O)C2)nc1Nc1ccc(N2CCC3(CC2)CCN(c2ccc4c(c2)C(=O)N(C2CCC(=O)NC2=O)C4=O)CC3)cc1 (centres unmarked) [Compound 017, 3-((4-(9-(2-(2,6-dioxopiperidin-3-yl)-1,3-dioxoisoindol-5-yl)-3,9-diazaspirocyclo[5.5]undec-3-yl)phenyl)amino)-5-(3-(3-(oxetan-3-yl)-2-oxoimidazolin-1-yl)piperidin-1-yl)pyrazin-2-carboxamide]
< 1 nM	NC(=O)c1ncc(N2CCCC(N3CCN(C4COC4)C3=O)C2)nc1Nc1ccc(N2CC3(C2)CN(c2ccc4c(c2)C(=O)N(C2CCC(=O)NC2=O)C4=O)C3)cc1 (centres unmarked) [Compound 018, 3-((4-(6-(2-(2,6-dioxopiperidin-3-yl)-1,3-dioxoisoindol-5-yl)-2,6-diazaspirocyclo[3.3]heptan-2-yl)phenyl)amino)-5-(3-(3-(oxetan-3-yl)-2-oxoimidazolin-1-yl)piperidin-1-yl)pyrazin-2-carboxamide]
> 1 nM	NC(=O)c1ncc(N2CCCC(N3CCN(C4COC4)C3=O)C2)nc1Nc1ccc(N2CCC3(CC2)CC(N2CCN(c4ccc5c(c4)C(=O)N(C4CCC(=O)NC4=O)C5=O)CC2)C3)cc1 (centres unmarked) [Compound 019]
< 1 nM	CC1(c2ccc(Nc3nc(N4CCCC(N5CCN(C6CCCC6)C5=O)C4)cnc3C(N)=O)cc2)CCN(C2CN(c3cccc4c3C(=O)N(C3CCC(=O)NC3=O)C4=O)C2)CC1 (centres unmarked) [Compound 020, 5-(3-(3-cyclopentyl-2-oxoimidazolin-1-yl)piperidin-1-yl)-3-((4-(1-(1-(2-(2,6-dioxopiperidin-3-yl)-1,3-dioxoisoindol-4-yl)azetidin-3-yl)-4-methylpiperidin-4-yl)phenyl)amino)pyrazin-2-carboxamide]
